Assay results published in patent publication US20220015371A1, “Compositions and Methods for Reducing Pesticide-Induced Plant Damage and Improving Plant Yield” (priority 2018, published 2022).

Legend:
[1] = tested on: glyphosate-tolerant Palmer Amaranth; experiment: Palmer Amaranth shoot and root weight, greenhouse conditions; assay type: in vivo, Amaranthus palmeri; conditions: two weeks after spraying
Source text: To test the effects of the inventive plant treatment product on weed survival in herbicide-tolerant Palmer Amaranth (Amaranthus palmeri) plants, the plant treatment product (Composition C+herbicide) or herbicide component (alone) were applied to weeds, in greenhouse conditions. […] The measurements of dry shoot mass and dry root mass were taken two weeks after spraying.

carpet weed = experiment: Weed control in rice field trial: carpet weed; assay type: in vivo; conditions: visually rated 8 May
Source text: (§1) To further evaluate the performance of certain embodiments of the present disclosure, bacterial fermentation product of the present disclosure was applied in a common herbicide application program to test herbicide injury tolerance, weed control, grain yield and milling quality in rice. Experiments were established in a field of Crowley fine sandy loam soil (59% sand, […], 12% clay, 0.7% organic matter and pH 5.3). The field was cropped to rice for every third year for many years and was naturally infested with many weeds. Plots consisted of six 18-ft rows, spaced 7.5-in. between rows. The experiment was conducted as a randomized completed block design with four replications. The trial consisted of six treatments (see Table 12, below).
(§2) Rice of the variety Presidio was drill seeded at 70 lb/acre on 5 Apr. Seeds for treatments 2, 4, 5 and 6 were treated with Composition E at 2.3 oz product/CWT prior to planting. Compositions A and B were applied at 7 oz product/acre on 1 May (postemergence), 2 Jun (panicle differentiation, PD) and 19 Jun (boot), using a CO2 pressurized, hand-held sprayer equipped with a boom of three TeeJet 8002VS nozzles spaced 19-in. apart that traveled at 3 mph and delivered at 29 gal/acre at 40 psi. […]

yellow nutsedge = experiment: Weed control in rice field trial: yellow nutsedge; assay type: in vivo; conditions: visually rated 8 May
Source text: as §1, §2

[2] = tested on: rice of the variety Presidio; experiment: Rice crop injury in herbicide application program, field trial; conditions: visually rated 8 May, 0 = no injury, 100 = complete plant death
Source text: as §1, §2

broadleaf signalgrass = experiment: Weed control in rice field trial: broadleaf signalgrass; assay type: in vivo; conditions: visually rated 8 May
Source text: as §1, §2

rice plants [3] = experiment: Example 5: rice plants stressed by foliar cyhalofop, field trial; assay type: in vivo; conditions: cyhalofop 1500 ml/ha, three days after application (FIG. 12A)
Procedure: To test the effect of foliar application of an inventive fermentation culture lysate composition on rice plants stressed by foliar application of the chemical herbicide cyhalofop, field trial(s) were conducted. Control fields (FIG. 11, A; FIG. 12A) were treated with herbicide formulation comprising cyhalofop (foliar application at 1500 ml/ha). Test fields (FIG. 11, B; FIG. 12B) were treated with a combination of the herbicide formulation comprising cyhalofop (foliar application at 1500 ml/ha) and fermentation culture lysate Composition B (foliar application at 500 ml/ha).

rice seedlings = experiment: Example 2: rice seedlings stressed by post-emergence halosulfuron, field trial; assay type: in vivo; conditions: halosulfuron post-emergence 1800 ml/ha, Composition E seed treatment 150 ml/100 kg seed where applied (FIGS. 7A, 7B)
Procedure: To test the effect of seed application of an inventive fermentation culture lysate composition on rice seedlings stressed by post-emergence application of the chemical herbicide halosulfuron, various field trial(s) were conducted. Control fields (FIGS. 6A, 7A) were treated with herbicide formulation comprising halosulfuron (post-emergence at 1800 ml/ha). Test fields (FIGS. 6B, 7B) included seedling treated with the herbicide formulation comprising halosulfuron (post-emergence at 1800 ml/ha) from seeds treated with fermentation culture lysate Composition E (seed treatment at 150 ml/100 kg seed) during planting.

rice plants [4] = experiment: Example 6: rice plants stressed by foliar profoxydim, field trial; assay type: in vivo; conditions: profoxydim 750 ml/ha, three days after application (FIG. 14A)
Procedure: To test the effect of foliar application of inventive fermentation culture lysate composition(s) on rice plants stressed by foliar application of the chemical herbicide profoxydim, field trial(s) were conducted. Control fields (FIG. 13, A; FIG. 14A) were treated with herbicide formulation comprising profoxydim (foliar application at 750 ml/ha). Test fields were treated with either (FIG. 13, B; FIG. 14B) a combination of (i) herbicide formulation comprising profoxydim (foliar application at 750 ml/ha) and (ii) fermentation culture lysate Composition B (foliar application at 500 ml/ha) or (FIG. 13, C; FIG. 14C) a combination of (i) herbicide formulation comprising profoxydim (foliar application at 750 ml/ha), (ii) fermentation culture lysate Composition B (foliar application at 500 ml/ha), and (iii) fermentation culture lysate Composition F (foliar application at 500 ml/ha).

rice plants [5] = experiment: Example 3: rice plants stressed by foliar propanil, field trial; assay type: in vivo; conditions: propanil 4000 ml/ha, three days after application (FIG. 9A)
Procedure: To test the effect of foliar application of an inventive fermentation culture lysate composition on rice plants stressed by foliar application of the chemical herbicide propanil, field trial(s) were conducted. Control fields (FIG. 8, A; FIG. 9A) were treated with herbicide formulation comprising propanil (foliar application at 4000 ml/ha). Test fields (FIG. 8, B; FIG. 9B) were treated with a combination of the herbicide formulation comprising propanil (foliar application at 4000 ml/ha) and fermentation culture lysate Composition B (foliar application at 500 ml/ha).

[6] = glyphosate 1.27 kg/ha, Composition C 1 liter/ha

**Q.** With `O=C(O)CNCP(=O)(O)O` [Herbicide, glyphosate] as the molecule, how does the “Palmer Amaranth root dry weight per plant” value [1, 6] read?
**A.** The value was 0.768.

**Q.** What about the “Palmer Amaranth root fresh weight per plant” value [1, 6] of the same molecule?
**A.** Its value is 4.70.

**Q.** And the “Palmer Amaranth shoot dry weight per plant” value [1, 6]?
**A.** The value was 5.31.

**Q.** What about the “Palmer Amaranth shoot fresh weight per plant” value [1, 6] of the same molecule?
**A.** Its value is 15.0.

**Q.** What about the “Palmer Amaranth root dry weight, change vs Untreated Control” value [1] of the same molecule?
**A.** The value was −40.9%.

**Q.** What about the “Palmer Amaranth root fresh weight, change vs Untreated Control” value [1] of the same molecule?
**A.** Its value is −51.3%.

**Q.** What about the “Palmer Amaranth shoot dry weight, change vs Untreated Control” value [1] of the same molecule?
**A.** The value was −7.01%.

**Q.** What about the “Palmer Amaranth shoot fresh weight, change vs Untreated Control” value [1] of the same molecule?
**A.** The value was −20.6%.

**Q.** How did the “Weed Control (%) Carpet weed” value (carpet weed) turn out when `CC1(C)CON(Cc2ccccc2Cl)C1=O` [clomazone PRE, clomazone] was run?
**A.** Its value is 0 c %.

**Q.** What about the “Weed Control (%) Yellow nutsedge” value (yellow nutsedge) of the same molecule?
**A.** The value was 0 b %.

**Q.** And the “Crop injury (%)” value [2]?
**A.** Its value is 5.0 d^y %.

**Q.** What about the “Weed Control (%) Broadleaf signalgrass” value (broadleaf signalgrass) of the same molecule?
**A.** Its value is 90 b %.

**Q.** For `C[C@@H](Oc1ccc(Oc2ccc(C#N)cc2F)cc1)C(=O)O` [cyhalofop], which phytotoxicity symptoms (rice plants [3]) is on record?
**A.** Its phytotoxicity symptoms is “showed phytotoxicity symptoms”.

**Q.** With `COc1cc(OC)nc(NC(=O)NS(=O)(=O)c2c(C(=O)O)c(Cl)nn2C)n1` [halosulfuron] as the molecule, how does the “bleaching of rice seedlings” value (rice seedlings) read?
**A.** The value was “caused bleaching”.

**Q.** How did the phytotoxicity symptoms (rice plants [4]) turn out when `CCCC(=NOCC(C)Oc1ccc(Cl)cc1)C1=C(O)CC(C2CCCSC2)CC1=O` (stereo not shown) [profoxydim] was run?
**A.** The phytotoxicity symptoms was “showed phytotoxicity symptoms”.

**Q.** Which phytotoxicity symptoms (rice plants [5]) does the source give for `CCC(=O)Nc1ccc(Cl)c(Cl)c1` [propanil] here?
**A.** Its phytotoxicity symptoms is “showed phytotoxicity symptoms”.
